What was measured:
HCT116 xenograft tumors [1] = assay: HCT116 xenograft, monomer versus dimerized peptide, peritumoral; type: in vivo, mouse; settings: HCT116 s.c. in NSG mice, peritumoral injection, monomer or dimerized, n = 5
Text: Figure 5 Dimerized PS-acet.-STAT3 peptide has improved antitumor functions. (A) The enhanced antitumor effect of the dimerized PS-acet.-STAT3 peptide is shown in HCT116 tumors grown in NSG mice (n = 5). Two-way ANOVA (Tukey’s multiple comparisons test) was used for analyzing the kinetics of tumor growth over the treatment period; ****P < 0.001; *P < 0.05. (B) The dimerized PS-acet.-STAT3 peptide downregulates pY705-STAT3 more effectively, as analyzed by immunoprecipitation and Western blotting with tumor homogenates from the tumors in A. hc, heavy chain of antibody. […] (D) quantitative real-time RT-PCR showing mRNA levels of STAT3-regulated proapoptotic and prosurvival genes in HCT116 tumor tissues treated with the indicated STAT3 peptides in A. n = 3 independent quantitative real-time RT-PCR experiments. […] Right panels show the quantified Ki-67 protein levels as well as mean of vessel diameter (data include 5 fields of view per group). […]
Mouse care and experimental procedures were performed under pathogen-free conditions in accordance with established institutional guidance and approved IACUC protocols from Research Animal Care Committee of the City of Hope. […] Tumor growth was measured by a digital caliper every other day. […] Lungs were then analyzed for immune responses by immunostaining followed by confocal imaging. […] Tumor growth was measured by a digital caliper every other day. […]

HCT116 xenograft tumors [2] = assay: HCT116 xenograft in NSG mice, systemic (i.v.) treatment; type: in vivo, mouse
Description: (A) Growth kinetics of HCT116 tumors in NSG mice systemically treated with acet.-STAT3 peptides (1 mg/kg), with or without PS oligonucleotide conjugation, every other day (n = 5). SD is shown. Two-way ANOVA (Tukey’s multiple comparisons test) was used for analyzing the kinetics of tumor growth over the treatment period; ****P < 0.001. […] Lower 2 panels show input total STAT3 protein. […] Penetration of FAM-labeled PS-acet.-STAT3 peptide into tumors was also assessed by immunostaining followed by confocal imaging (second panel from top). The images are representative of 5 tumors per experimental group in A. Scale bars: 50 μm. Insets: original magnification, ×20. The graphs show the quantification for FAM and Ki-67 expression levels and of the mean vessel diameter (data include 5 fields of view per group). SD is shown. One-way ANOVA; ****P < 0.001; ***P < 0.005.
Mouse care and experimental procedures were performed under pathogen-free conditions in accordance with established institutional guidance and approved IACUC protocols from Research Animal Care Committee of the City of Hope. For s.c. tumor challenge, 5 × 10^6 HCT116 cells were injected into NSG mice from The Jackson Laboratory or animal resource core facility at the City of Hope. After tumors reached an average size of 80~100 mm^3, mice were locally or intravenously treated with 1 mg/kg of PO- or PS-peptides (Anaspec) every day or every other day. Control animals were treated with the equal volume of HBSS (Invitrogen, Thermo Fisher Scientific). Tumor growth was measured by a digital caliper every other day. To study the effects of the modified peptides at protein and gene levels, mice were euthanized 4–6 weeks after tumor injection. B16 melanoma lung metastasis was performed by injecting 0.5 × 10^6 B16 cells into bloodstream of C57BL/6 mice (The Jackson Laboratory). One day after tumor challenge, mice were treated intravenously (retro-orbitally) with 1 mg/kg of PO- or PS-acet.-STAT3, PS-unacet.-STAT3, or PS-STAT3-K685R peptides every other day until the endpoint as indicated. Control mice were treated with HBSS. Lungs were excised from the mice, and B16 nodules were visualized by gp100 staining. Lungs were then analyzed for immune responses by immunostaining followed by confocal imaging. For mouse PDAC model, 5 × 10^6 KPC mouse cells were mixed with Matrigel and subcutaneously injected into C57BL/6 mice (The Jackson Laboratory). […] Control animals were treated with the equal volume of HBSS (Invitrogen, Thermo Fisher Scientific). Tumor growth was measured by a digital caliper every other day. To study the effects of the modified peptides at protein and gene levels, mice were euthanized at the endpoint as indicated.

## PDIPKEEAFGK685(Ac)YCRPESQEHPC-linker-T*C*C*A*T*G*A*G*C*T*T*C*C*T*G*A*T*G*C*T [PS-acet.-STAT3 peptide]
HCT116 xenograft tumors [1]
  tumor growth: significantly reduced
HCT116 xenograft tumors [2]; HCT116 s.c. in NSG mice, 1 mg/kg i.v. every other day, n = 5
  tumor growth: significantly reduced
HCT116 xenograft tumors [2]; HCT116 tumor tissues, immunoprecipitation and Western blotting
  STAT3 activation in tumor xenografts: downregulated
HCT116 xenograft tumors [2]; HCT116 xenograft
  cell death in tumor sections (H&E staining): massive cell death
HCT116 xenograft tumors [2]; HCT116 xenograft, IF and confocal
  cell proliferation marker Ki-67 and tumor angiogenesis marker CD31 in tumor tissues: significant reduction
HCT116 xenograft tumors [2]; HCT116 xenograft, qRT-PCR
  proapoptotic genes (TP53, CASP9) in tumor tissues: significantly upregulated
HCT116 xenograft tumors [2]; HCT116 xenograft, qRT-PCR and Western blotting
  expression of STAT3 target genes MMP-9 (MMP9) and BCL-XL (BCL2L1) in tumors: significantly reduced
